Measured values: ChEMBL document CHEMBL4371038, “Synthesis and biological evaluation of novel 1-substituted 3-(3-phenoxyprop-1-yn-1-yl)-1H-pyrazolo[3,4-d]pyrimidin-4-amines as potent Bruton's tyrosine kinase (BTK) inhibitors” (Bioorg Med Chem Lett, 2019)
Blank lines part the entries; values can stand above or below the molecule they belong to.

Key:
[1] = biological target: T1, Tyrosine-protein kinase BTK (Homo sapiens, UniProt Q06187); experiment: Inhibition of recombinant full-length human N-terminal GST-fused BTK (2 to 659 residues) expressed in baculovirus expression system at 1 uM using biotin-labelled peptide as substrate measured after 50 mins by TR-FRET assay relative to control
SU-DHL-6 = experiment: Antiproliferative activity against human SU-DHL6 cells after 72 hrs by CellTiter-Glo luminescent cell viability assay; type: functional, cell-based; conditions: SU-DHL-6, 72 h
DOHH-2 = experiment: Antiproliferative activity against human DOHH2 cells after 72 hrs by CellTiter-Glo luminescent cell viability assay; type: functional, cell-based; conditions: DOHH-2, 72 h
[2] = biological target: T1, Tyrosine-protein kinase BTK; experiment: Inhibition of recombinant full-length human N-terminal GST-fused BTK (2 to 659 residues) expressed in baculovirus expression system using biotin-labelled peptide as substrate measured after 50 mins by TR-FRET assay
[3] = Antiproliferative activity against human Mino cells after 72 hrs by CellTiter-Glo luminescent cell viability assay; type: functional, cell-based
PBMC = experiment: Cytotoxicity against human PBMC after 72 hrs by CellTiter-Glo luminescent cell viability assay; type: cell-based
Raji = experiment: Antiproliferative activity against human Raji cells after 48 hrs by CCK8 assay; type: functional, cell-based
[4] = Antiproliferative activity against human WSU-DLCL2 cells after 72 hrs by CellTiter-Glo luminescent cell viability assay; type: functional, cell-based; conditions: WSUDLCL2, 72 h
Ramos = experiment: Antiproliferative activity against human Ramos cells after 48 hrs by CCK8 assay; type: functional, cell-based
[5] = Cytotoxicity against human PBMC assessed as inhibition of cell proliferation at 30 uM after 72 hrs by CellTiter-Glo luminescent cell viability assay relative to control; type: cell-based; conditions: PBMC (peripheral blood mononuclear cells)

T1 sequence (Q06187 whole entry, the tested form may be a part): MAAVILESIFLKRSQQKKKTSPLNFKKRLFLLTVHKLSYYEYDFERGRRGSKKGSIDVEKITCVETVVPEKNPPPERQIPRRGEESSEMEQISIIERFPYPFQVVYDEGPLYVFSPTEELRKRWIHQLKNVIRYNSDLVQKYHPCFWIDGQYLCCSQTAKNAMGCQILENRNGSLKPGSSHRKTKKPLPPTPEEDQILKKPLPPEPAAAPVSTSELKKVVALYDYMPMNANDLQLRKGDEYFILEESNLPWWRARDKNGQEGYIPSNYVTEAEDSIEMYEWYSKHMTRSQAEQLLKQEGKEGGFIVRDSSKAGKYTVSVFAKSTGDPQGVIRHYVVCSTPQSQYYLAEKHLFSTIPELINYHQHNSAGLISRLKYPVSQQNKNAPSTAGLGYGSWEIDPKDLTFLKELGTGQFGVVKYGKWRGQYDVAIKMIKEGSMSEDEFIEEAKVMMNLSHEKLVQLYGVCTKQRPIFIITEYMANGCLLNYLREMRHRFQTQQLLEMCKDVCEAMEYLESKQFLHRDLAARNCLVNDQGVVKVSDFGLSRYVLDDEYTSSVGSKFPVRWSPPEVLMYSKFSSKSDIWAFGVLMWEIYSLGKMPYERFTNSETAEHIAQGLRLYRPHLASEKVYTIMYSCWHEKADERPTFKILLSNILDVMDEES

- inhibition [1]: 86.1%
Structure (SMILES): Nc1ncnc2c1c(C#CCOc1ccccc1)nn2[C@@H]1CCCN(C(=O)/C=C/CN2CCOCC2)C1

- IC50 (SU-DHL-6): > 10000 nM
- IC50 [2]: 11.1 nM
- inhibition [1]: 97.1%
- IC50 (Raji): 2090 nM
- IC50 (Ramos): 9060 nM
Structure (SMILES): N#C/C(=C\C1CC1)C(=O)N1CCC[C@@H](n2nc(C#CCOc3ccccc3)c3c(N)ncnc32)C1
- IC50 (DOHH-2): > 10000 nM
- IC50 [3]: 8850 nM
- IC50 (PBMC): > 30000 nM
- IC50 [4]: > 10000 nM

- inhibition [1]: 73.8%
Structure (SMILES): C=C(F)C(=O)N1CCC[C@@H](n2nc(C#CCOc3ccccc3)c3c(N)ncnc32)C1

- IC50 [2]: 4.2 nM
- inhibition [1]: 104%
- IC50 (Raji): > 40000 nM
- IC50 (Ramos): > 40000 nM
Structure (SMILES): C=CS(=O)(=O)N1CCC[C@@H](n2nc(C#CCOc3ccccc3)c3c(N)ncnc32)C1

- IC50 [2]: 28.3 nM
- inhibition [1]: 99.7%
Structure (SMILES): CC#CC(=O)N1CCC[C@@H](n2nc(C#CCOc3ccccc3)c3c(N)ncnc32)C1

- IC50 [2]: 14.8 nM
- inhibition [1]: 101%
Structure (SMILES): C=CC(=O)N[C@H]1CC[C@@H](n2nc(C#CCOc3ccccc3)c3c(N)ncnc32)CC1

- IC50 [2]: 9.7 nM
- inhibition [1]: 99.6%
- IC50 (Raji): > 40000 nM
- IC50 (Ramos): > 40000 nM
Structure (SMILES): CC(C)/C=C(\C#N)C(=O)N1CCC[C@@H](n2nc(C#CCOc3ccccc3)c3c(N)ncnc32)C1

Structure (SMILES): C=CC(=O)N1CCC[C@@H](n2nc(-c3ccc(Oc4ccccc4)cc3)c3c(N)ncnc32)C1 [IBRUTINIB]
- IC50 (SU-DHL-6): 874 nM
- IC50 (DOHH-2): 33.4 nM
- IC50 [3]: 3150 nM
- IC50 [4]: 487 nM
- inhibition at 72 h, 30 µM [5]: 69%

- inhibition [1]: 27.1%
Structure (SMILES): C=CC(=O)NCCn1nc(C#CCOc2ccccc2)c2c(N)ncnc21

- inhibition [1]: 48.5%
Structure (SMILES): C=CC(=O)N(C)CCn1nc(C#CCOc2ccccc2)c2c(N)ncnc21

- IC50 [2]: 18.8 nM
- inhibition [1]: 96.1%
Structure (SMILES): C=CC(=O)N1CC[C@@H](n2nc(C#CCOc3ccccc3)c3c(N)ncnc32)C1

- IC50 [2]: 7.8 nM
- inhibition [1]: 98.5%
- IC50 (Raji): 17600 nM
- IC50 (Ramos): 25800 nM
Structure (SMILES): C/C=C(\C#N)C(=O)N1CCC[C@@H](n2nc(C#CCOc3ccccc3)c3c(N)ncnc32)C1

- inhibition [1]: 76.3%
Structure (SMILES): Nc1ncnc2c1c(C#CCOc1ccccc1)nn2[C@@H]1CCCN(C(=O)/C=C/Cn2cncn2)C1

- IC50 (SU-DHL-6): 26.6 nM
- IC50 [2]: 11.1 nM
- inhibition [1]: 102%
- IC50 (Raji): 2370 nM
- IC50 (Ramos): 9940 nM
Structure (SMILES): C#CC(=O)N1CCC[C@@H](n2nc(C#CCOc3ccccc3)c3c(N)ncnc32)C1
- IC50 (DOHH-2): 12.8 nM
- IC50 [3]: 67.9 nM
- IC50 (PBMC): 4120 nM
- IC50 [4]: 14.1 nM

- IC50 [2]: 13.2 nM
- inhibition [1]: 92.2%
Structure (SMILES): Nc1ncnc2c1c(C#CCOc1ccccc1)nn2[C@@H]1CCCN(C(=O)/C=C/CBr)C1

- IC50 (SU-DHL-6): 1630 nM
Structure (SMILES): C=CC(=O)N1CCC[C@@H](n2nc(C#CCOc3ccccc3)c3c(N)ncnc32)C1
- IC50 (DOHH-2): 18.1 nM
- IC50 [3]: 3730 nM
- IC50 (PBMC): > 30000 nM
- IC50 [4]: 395 nM

- inhibition [1]: 42.9%
Structure (SMILES): C=CC(=O)N1CCC[C@H]1Cn1nc(C#CCOc2ccccc2)c2c(N)ncnc21
